Assay results taken from patent US11555026B2, “AHR inhibitors and uses thereof” (Ikena Oncology, Inc., priority 2017, dated 2023).
pIC50: −log10 of the molar value.

biological target: T1, AHR (UniProt P35869); assay: DRE-Luciferase Reporter Assay (Alternate Method, Example 1B); type: cell-based; parameters: IC50; other: alternate method: compound and agonist added at plating or after overnight incubation; murine (Hepa1-6, He); conditions: alternate method: compound and agonist added at plating or after overnight incubation; murine (Hepa1-6, Hepa-1c1c7) or human (HepG2) DRE-luciferase reporter cells, cell line used not stated
T1 sequence (P35869 1-848): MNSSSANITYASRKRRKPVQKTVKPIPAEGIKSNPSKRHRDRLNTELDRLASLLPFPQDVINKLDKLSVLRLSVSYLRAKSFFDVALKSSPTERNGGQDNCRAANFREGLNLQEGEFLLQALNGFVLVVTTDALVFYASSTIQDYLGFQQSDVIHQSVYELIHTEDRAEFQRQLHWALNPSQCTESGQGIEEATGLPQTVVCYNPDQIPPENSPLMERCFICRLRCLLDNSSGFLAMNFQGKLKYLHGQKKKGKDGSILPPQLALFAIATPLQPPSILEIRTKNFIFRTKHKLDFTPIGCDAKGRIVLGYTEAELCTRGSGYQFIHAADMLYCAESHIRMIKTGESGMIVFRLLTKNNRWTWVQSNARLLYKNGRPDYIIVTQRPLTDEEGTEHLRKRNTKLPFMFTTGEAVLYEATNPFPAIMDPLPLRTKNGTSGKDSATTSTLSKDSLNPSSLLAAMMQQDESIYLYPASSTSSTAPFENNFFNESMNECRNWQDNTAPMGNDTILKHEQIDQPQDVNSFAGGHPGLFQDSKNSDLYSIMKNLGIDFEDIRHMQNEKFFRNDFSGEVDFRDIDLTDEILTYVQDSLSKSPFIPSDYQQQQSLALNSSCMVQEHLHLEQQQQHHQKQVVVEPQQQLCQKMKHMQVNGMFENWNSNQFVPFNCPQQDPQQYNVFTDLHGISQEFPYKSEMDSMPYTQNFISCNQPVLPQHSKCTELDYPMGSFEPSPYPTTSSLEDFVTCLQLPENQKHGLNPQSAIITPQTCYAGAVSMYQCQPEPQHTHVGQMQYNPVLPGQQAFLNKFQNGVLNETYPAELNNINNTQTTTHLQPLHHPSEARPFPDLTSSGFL
Procedure: AHR binds to Dioxin Responsive Elements (DRE) upstream of genes that it activates. One measure of AHR activity is activation of a reporter gene, such as luciferase, downstream of one or multiple DRE elements. Luciferase activity will reflect activation and inhibition of AHR in the cells expressing his reporter.
Murine Hepa1-6 or Hepa-1c1c7 or other murine cell line with a DRE-luciferase reporter either stably or transiently transfected were plated in media in plates (96-well, 384-well or other plates) and incubated overnight at 37° C. in a CO2 incubator or compound and agonist were added at the time of plating. Likewise, human HepG2 or other human cell line with a DRE-luciferase reporter either stably or transiently transfected were plated in media in plates (96-well, 384-well or other plates) and incubated overnight at 37° C. in a CO2 incubator or compound and agonist were added at the time of plating.
At the time that cells are plated or following incubation overnight, an AHR activating ligand, such as TCDD, kynurenine, ITE (2-(1H-indole-3-ylcarbonyl)-4-thiazolecarboxylic methyl ester), VAF347, BNF (beta-naphthoflavone), FICZ (6-formylindolo(3,2-b) carbazole or other AHR ligands, was added with or without AHR antagonist.
Cells were incubated for 4, 15 or 24 hours or another time point and then lysed for determination of luciferase activity as a read-out of the AHR activation or inhibition. Luciferase was measured with a commercial kit such as the Promega Luciferase kit or any kit or reagents that provide the luciferin substrate for measuring luciferase activity. The level of luciferase with only activating ligand added was the maximum signal while the luciferase with no ligand was the minimum signal. IC50 values were determined as the concentration which inhibits half of the luciferase activity.

pIC50, 5.82 to 6.00:
Cn1nccc1C(=O)Nc1ccc2cc(-c3ccccc3O)cnc2c1 [I-81, N-[3-(2-Hydroxyphenyl)-7-quinolyl]-2-methyl-pyrazole-3-carboxamide]
Cn1nccc1C(=O)Nc1ccc2cc(-c3cccc(O)c3)cnc2c1 [I-82, N-[3-(3-Hydroxyphenyl)-7-quinolyl]-2-methyl-pyrazole-3-carboxamide]

pIC50, 6.00 to 6.30:
Cn1nccc1C(=O)Nc1ccc2cc(-c3ncco3)cnc2c1 [I-45, 2-Methyl-N-(3-oxazol-2-yl-7-quinolyl)pyrazole-3-carboxamide]
Cn1nccc1C(=O)Nc1ccc2nc(-c3ccccc3)cnc2c1 [I-65]
Cc1cc(/C=C/c2ccccc2)ccc1N(C)C(=O)c1ccnn1C [I-66]
Cn1nccc1C(=O)Nc1cnc2cc(-c3ccccc3)ccc2c1 [I-67]
Cc1cc(/N=N/c2cccc3ccccc23)ccc1NC(=O)c1ccnn1C [I-75]
O=C(Nc1ccc2cc(-c3ccccc3)cnc2c1)c1ccn[nH]1 [I-78, N-(3-Phenyl-7-quinolyl)-1H-pyrazole-5-carboxamide]

pIC50, > 6.30:
Cn1nccc1C(=O)Nc1ccc2cc(-c3nccs3)cnc2c1 [I-44, 2-Methyl-N-(3-thiazol-2-yl-7-quinolyl)pyrazole-3-carboxamide]
Cn1nccc1C(=O)Nc1ccc2cc(-c3cccs3)cnc2c1 [I-46, 2-Methyl-N-[3-(2-thienyl)-7-quinolyl]pyrazole-3-carboxamide]
Cn1nccc1C(=O)Nc1ccc2cc(-c3ccsc3)cnc2c1 [I-48, 2-Methyl-N-[3-(3-thienyl)-7-quinolyl]pyrazole-3-carboxamide]
Cc1ccccc1-c1cnc2cc(NC(=O)c3ccnn3C)ccc2c1 [I-51, 2-Methyl-N-[3-(o-tolyl)-7-quinolyl]pyrazole-3-carboxamide]
Cn1nccc1C(=O)Nc1ccc2cc(-c3ccccc3)cnc2c1 [I-70]
Cn1nccc1C(=O)Nc1ccc2cc(-c3cccc(C(F)(F)F)c3)cnc2c1 [I-84, 2-Methyl-N-[3-[3-(trifluoromethyl)phenyl]-7-quinolyl]pyrazole-3-carboxamide]

pIC50, < 5.82:
CC(=O)Nc1ccc2cc(-c3ccccc3)cnc2c1 [I-47, N-(3-Phenyl-7-quinolyl)acetamide]
Cn1nccc1C(=O)Nc1ccc2cc(C3CCCCC3)cnc2c1 [I-49, N-(3-Cyclohexyl-7-quinolyl)-2-methyl-pyrazole-3-carboxamide]
Cn1nccc1C(=O)Nc1ccc2cccnc2c1 [I-50, 2-Methyl-N-(7-quinolyl)pyrazole-3-carboxamide]
Cc1ccccc1-c1ccc2cc(NC(=O)c3ccnn3C)ccc2c1 [I-52, 2-Methyl-N-[6-(o-tolyl)-2-naphthyl]pyrazole-3-carboxamide]
Cc1cc(C#Cc2cccc3c2OCO3)ccc1NC(=O)c1ccnn1C [I-53, N-[4-[2-(1,3-Benzodioxol-4-yl)ethynyl]-2-methyl-phenyl]-2-methyl-pyrazole-3-carboxamide]
Cc1cc(C#CC2CCCCC2)ccc1NC(=O)c1ccnn1C [I-54, N-[4-(2-Cyclohexylethynyl)-2-methyl-phenyl]-2-methyl-pyrazole-3-carboxamide]
Cc1cc(C#Cc2ccncc2)ccc1NC(=O)c1ccnn1C [I-55, 2-Methyl-N-[2-methyl-4-[2-(4-pyridyl)ethynyl]phenyl]pyrazole-3-carboxamide]
Cc1cc(C#Cc2cccnc2)ccc1NC(=O)c1ccnn1C [I-56, 2-Methyl-N-[2-methyl-4-[2-(3-pyridyl)ethynyl]phenyl]pyrazole-3-carboxamide]
Cc1cc(C#CC2CCNCC2)ccc1NC(=O)c1ccnn1C [I-57, 2-Methyl-N-[2-methyl-4-[2-(4-piperidyl)ethynyl]phenyl]pyrazole-3-carboxamide]
Cc1cc(C#Cc2ccccn2)ccc1NC(=O)c1ccnn1C [I-58, 2-Methyl-N-[2-methyl-4-[2-(2-pyridyl)ethynyl]phenyl]pyrazole-3-carboxamide]
Cn1nccc1C(=O)Nc1ccc(C#Cc2ccccc2)c2c1OCO2 [I-59, 2-Methyl-N-[7-(2-phenylethynyl)-1,3-benzodioxol-4-yl]pyrazole-3-carboxamide]
COc1cc(C#Cc2ccccc2)ccc1NC(=O)c1ccnn1C [I-60, N-[2-Methoxy-4-(2-phenylethynyl)phenyl]-2-methyl-pyrazole-3-carboxamide]
CC#Cc1ccc(NC(=O)c2ccnn2C)c(C)c1 [I-61, 2-methyl-N-(2-methyl-4-prop-1-ynyl-phenyl)pyrazole-3-carboxamide]
Cn1nccc1C(=O)Nc1ccc(C#Cc2ccccc2)cc1C(F)(F)F [I-62]
Cn1nccc1C(=O)Nc1ccc(C#Cc2ccccc2)cc1 [I-63, 2-Methyl-N-[4-(2-phenylethynyl)phenyl]pyrazole-3-carboxamide]
COc1ccccc1C#Cc1ccc(NC(=O)c2ccnn2C)c(C)c1 [I-64]
Cc1c(NC(=O)c2ccnn2C)ccc2nc(-c3ccccc3)ccc12 [I-68]
Cc1ccccc1-c1cnc2ccc(NC(=O)c3ccnn3C)c(C)c2c1 [I-69]
Cc1cc(C2CC2c2ccccc2)ccc1NC(=O)c1ccnn1C (stereo not drawn) [I-71]
Cc1ccccc1-c1ccc2c(C)c(NC(=O)c3ccnn3C)ccc2n1 [I-72]
Cc1ccccc1/C=C/c1ccc(C(=O)Nc2ccnn2C)c(C)c1 [I-73]
Cc1cc(/N=N/c2cccc3cccnc23)ccc1NC(=O)c1ccnn1C [I-74]
CC(C)n1nccc1C(=O)Nc1ccc2cc(-c3ccccc3)cnc2c1 [I-76, 2-Isopropyl-N-(3-phenyl-7-quinolyl)pyrazole-3-carboxamide]
Cn1nccc1C(=O)Nc1ccc2c(=O)n(-c3ccccc3)cnc2c1 [I-77, 2-Methyl-N-(4-oxo-3-phenyl-quinazolin-7-yl)pyrazole-3-carboxamide]
Cn1cncc1C(=O)Nc1ccc2cc(-c3ccccc3)cnc2c1 [I-79, 3-Methyl-N-(3-phenyl-7-quinolyl)imidazole-4-carboxamide]
Cn1nccc1C(=O)Nc1ccc2cc(-c3ccc(N4CCOCC4)cc3)cnc2c1 [I-80, 2-Methyl-N-[3-(4-morpholinophenyl)-7-quinolyl]pyrazole-3-carboxamide]
Cn1nccc1C(=O)Nc1ccc2cc(-c3ccccc3N3CCOCC3)cnc2c1 [I-83, 2-Methyl-N-[3-(2-morpholinophenyl)-7-quinolyl]pyrazole-3-carboxamide]
Cn1nccc1C(=O)Nc1ccc2cc(-c3cccc(N4CCOCC4)c3)cnc2c1 [I-85, 2-Methyl-N-[3-(3-morpholinophenyl)-7-quinolyl]pyrazole-3-carboxamide]
Cn1nccc1C(=O)Nc1ccc2cc(-c3ccc(O)cc3)cnc2c1 [I-86, N-[3-(4-Hydroxyphenyl)-7-quinolyl]-2-methyl-pyrazole-3-carboxamide]
Cn1nccc1C(=O)Nc1ccc2cc(-c3ccc(C(F)(F)F)cc3)cnc2c1 [I-87, 2-Methyl-N-[3-[4-(trifluoromethyl)phenyl]-7-quinolyl]pyrazole-3-carboxamide]
Cn1nccc1C(=O)Nc1ccc2cc(-c3ccccc3C(F)(F)F)cnc2c1 [I-88, 2-Methyl-N-[3-[2-(trifluoromethyl)phenyl]-7-quinolyl]pyrazole-3-carboxamide]
